Test [1] deals with CHO K1 cells. Put plainly: Cytotoxicity dose-response (MTS cell viability) in CHO K1 cells. In kind it is cell-based, Chinese hamster. Conditions: 48 h. The procedure: CHO K1 Studies. Wild type Chinese hamster ovary (CHO K1) cells were chosen to first study the synthetic compounds' impact on polyamine metabolism. The CHO K1 cell line has high polyamine transport activity and was useful in screening compounds for their polyamine transport inhibitor activity. A dose-response curve was obtained for each compound to determine their toxicity in CHO K1 cells after 48 h incubation. Compound 9 (1666.177) was non-toxic up to the highest dose tested (15 μM).
(§1) Regarding the biological studies performed in the following examples, it is noted that CHO K1, CHO-MG, and L3.6pl cells were grown in RPMI 1640 medium supplemented with 10% fetal bovine serum (FBS) and 1% penicillin/streptomycin. All cells were grown at 37° C. under a humidified 5% CO2 atmosphere. Aminoguanidine (1 mM used for CHO K1 and CHOMG cells and 250 μM for L3.6pl) was added to the growth medium to prevent oxidation of the compounds of the bovine serum amine oxidase enzyme that is present in calf serum. The cells used were in early to mid log phase and CHO and CHOMG were plated out at 1000 cells/well, whereas the L3.6pl cells were plated at 500 cells/well in a 96 well plate format.
(§2) This example illustrates aspects according to various embodiments pertaining to IC50 determinations and cell viability studies. Cell growth was assayed in sterile 96-well microtiter plates (Costar 3599, Corning, N.Y.). CHO K1 or CHOMG cells were plated at 1,000 cells/70 μL and L3.6pl cells at 500 cells/70 μL. The drug solutions of appropriate concentration in phosphate buffered saline (PBS) were added 10 μL per well after overnight incubation. After drug exposure (e.g., for 48 h for CHO K1 and CHO-MG and 48 h or 72 h for L3.6pl), cell growth was determined by measuring formazan formation from the 3-(4,5dimethylthiazol-2-yl)-5-(3-carboxymethoxyphenyl)-2-(4-sulfenyl)-2H tetrazolium, inner salt (MTS) using SynergyMx Biotek microplate reader for absorbance (490 nm) measurements.^27 All experiments were run in triplicate.

Test [2] has as its system L3.6pl human pancreatic cancer cells. Put plainly: Cytotoxicity dose-response (MTS) in L3.6pl cells. In kind it is cell-based. Here is the method: L3.6pl Studies. Compounds 9 and 10 were evaluated in the metastatic human pancreatic cancer cell line, L3.6pl. L3.6pl has a K-ras mutation, and high polyamine uptake activity.^7 A dose-response curve was obtained for each compound in L3.6pl cells to determine the 72 h L3.6pl IC50 value, described as the dose at which L3.6pl cells were 50% viable compared to the untreated control.
as §1, §2

The next test relates to L3.6pl cells. Description: Ant-44 toxicity potentiation assay in L3.6pl cells. Conditions: Homo sapiens, Ant-44 2 μM, 72 h. In kind it is cell-based, human. The procedure: As performed previously with CHO K1 cells, L3.6pl cells were treated with compounds 9 (1666.177) and 10 (1666.255) and a fixed dose of Ant-44 to observe the potentiation effect. The 72 h IC50 dose of Ant-44 in L3.6pl cells was previously determined to be 4 μM. For this study, half that dose was used to replicate the large window used in the CHO experiments to look at reduction in cell viability. In a 96-well plate, L3.6pl cells were dosed with a fixed concentration of Ant-44 (2 μM) and increasing doses of compounds 9 (1666.177) and 10 (1666.255). Although both compounds were effective at reducing cell viability, higher doses were required compared to CHO K1 cells.
FIG. 6 is an example according to various embodiments, illustrating the ability of compounds 9 (1666.177) and 10 ([…]) to potentiate the effect of Ant-44 in L3.6pl cells. Cells were incubated for 72 h at 37° C. with the respective compound and Ant-44 (2 μM). A 250 μM AG solution was incubated with the cells for 24 h prior to addition of compounds. […] Both compounds are nontoxic at the second highest concentration tested (1 μM).

In test [3] the test system is CHO K1 cells. Put plainly: cells. In kind it is cell-based, Chinese hamster. The following applies: Cricetulus griseus, Ant-44 0.5 μM. Here is the method:
Various embodiments involve the concept that a non-toxic PTI agent would inhibit the uptake of the cytotoxic polyamine conjugate Ant-44 (11) and rescue cells from Ant-44 induced toxicity. For example, using the IC50 dose of Ant-44, PTIs could be identified by measuring a compound's ability to block Ant-44 entry and rescue cells back to >90% viability. […] This toxic dose of Ant-44 was kept constant throughout the assay, while the candidate PTI compound was added in increasing concentrations up to its MTD.
Compounds (9 and 10) were tested at 5 μM and 7 μM. CHO K1 cells were treated in a 96-well plate with a toxic dose of Ant-44 (2.4 μM) alone and dosed with the candidate compounds (at 5 μM and 7 μM) and incubated for 48 h at 37° C.
To further explore this effect, development of various embodiments included modifying an original screen to use a lower dose of Ant-44 (0.5 μM) to improve the dose range of 9 and 10 that could be tested. In this regard, Ant-44 was dosed at 0.5 μM alone and in combination with increasing doses of compounds 9 (1666.177) and 10 (1666.255) and the CHO K1 cells were incubated for 48 h at 37° C., and the results are shown in FIG. 5. The red line represents the % cell viability of the Ant-44 only control. The Ant44 potentiation assay EC50 value is defined as the concentration of the candidate compound required to decrease the cell viability to half that of the Ant-44 only control. Both compounds 9 and 10 were effective at decreasing cell viability, when used in combination with Ant-44 in a dose dependent fashion.
FIG. 5 is an example according to various embodiments, illustrating potentiation of Ant-44 toxicity by compounds 9 and 10 in CHO K1 cells. Cells were incubated for 48 h at 37° C. with the respective compound and a fixed concentration of cytotoxic Ant-44 (0.5 μM). A 1 mM AG solution was incubated with the CHO K1 cells for 24 h prior to the addition of candidate compound. This was necessary to protect Ant-44 from the amine oxidases present in the media containing fetal bovine serum. […] Both compounds are nontoxic at the highest concentration tested (5 μM).

Test [4] relates to CHO K1 cells. The following applies: previously determined (ref 7), read-out: 48 h IC50; cited from earlier work.
For test [5], the target named is T1, LAT-1 (Homo sapiens, UniProt Q01650).
T1 construct: endogenous in cells; host or cells: L3.6pl human pancreatic cancer cells
Description: 3H-Leucine efflux assay. In kind it is cell-based. The following applies: L3.6pl, 2 min; JPH-203 30 μM or compound 10 20 μM. The text has this: JPH203 is not toxic to L3.6pl cells over this concentration range and time interval. FIG. 10E is an example according to various embodiments, illustrating results obtained for a Leu uptake inhibition experiment with compound 10. Note: the y-axis in FIG. 10E is in CPM per ug of protein to normalize the data and account for any potential losses of cells due to toxicity of compound 10. FIG. 10F is an example according to various embodiments, illustrating results obtained for a Leucine efflux experiment with LAT-1 inhibitor JPH-203. Briefly, the efflux procedure involved cells pre-incubated with ‘hot’ leucine (3H labeled) and washed to remove unbound radiolabeled Leucine. The cells were then incubated in the presence and absence of unlabeled Leucine (100 μM) and/or the LAT-1 inhibitor JPH-203 (30 μM). In the presence of unlabeled leucine, the cells released ‘hot’ 3H-leucine into the media which was measured via scintillation/radioactivity counts. This efflux or release from within the cell was inhibited by the presence of the LAT-1 inhibitor, JPH-203 (30 μM, FIG. 10F). Since JPH203 inhibits the import of unlabeled leucine then less unlabeled Leucine will enter the cell and less efflux of radiolabeled Leucine molecules from inside the cell will be observed. This is consistent with JPH-203 being a LAT-1 inhibitor. FIG. 10G is an example according to various embodiments, illustrating results obtained for a two minute Leucine efflux experiment with compound 10. Cells were pre-incubated with ‘hot’ leucine (^3H labeled) and washed to remove unbound radiolabeled Leucine. The cells were then incubated in the presence and absence of unlabeled “cold” Leucine (100 μM) and/or the compound 10 (20 μM). In the presence of unlabeled ‘cold’ leucine, the cells released ‘hot’ ^3H-leucine into the media which was measured via scintillation/radioactivity counting. […] The efflux experiment was repeated and the time for monitoring efflux increased to 30 minutes. […] In summary, compound 10 inhibits Leucine uptake and facilitates LAT-1 mediated efflux.
^3H-Leucine Efflux Assay ^3H-Leucine efflux experiments were performed according to the protocol developed by Hälfliger et al. (2018) (referenced below) with the following changes. Briefly, cells were preloaded with 12 μM stock of L-[^3H]leucine (79 Ci/mmol) to give a final concentration of ^3H-leucine was 1.2 μM in each well. […] The medium was then collected and mixed with scintillation fluid (Scintiverse™ BD Cocktail) and radioactivity measured (Beckman Coulter LS 6500 Multi-Purpose Scintillation Counter). […] The lysate (300 μL) was mixed with scintillation fluid and radioactivity was counted. Relative efflux was expressed as percentage radioactivity=100%×(radioactivity of medium)/(radioactivity of the medium+radioactivity of the cells). […]

In test [6] the target is T1, LAT-1. Description: 3H-Leucine uptake assay. In kind it is cell-based. The following applies: L3.6pl cells, increasing concentration, 15 min uptake (FIG. 10D, 10E). Here is the method: ^3H-Leucine uptake experiments were performed according to the protocol developed by Hälfliger et al. (2018) (referenced below with the following changes. Briefly, cells were seeded at 60% confluency in a 24-well plate and incubated for 4 h at 37° C. After 4 hours, different concentrations of compound 10 were added and the cells were then incubated overnight. L-^3H-leucine uptake inhibition was measured for 15 minutes using a 12 μM stock of L-[^3H]leucine (79 Ci/mmol). The final concentration of ^3H-leucine in each well was 1.2 uM. This concentration produced a CPM reading of ˜4000 cpm for the control. Uptake was terminated by removing the buffer solution followed by washing the cells with cold Na^+-free Hank's Balanced Salt Solution. Cells were then lysed to give ˜500 μL of cell lysate. A portion of the cell lysate (200 μL) was mixed with Scintiverse™ BD Cocktail for determining radiocounts. The radioactivity was measured with a scintillation counter (Beckman Coulter LS 6500 Multi-Purpose Scintillation Counter). Another portion of the cell lysate (300 μL) was used for protein determination using the BCA method. The final data was expressed as cpm/microgram of protein to account for the different number of cells remaining after the experiment. This was necessary because compound 10 was toxic and less cells were present after the overnight incubation (24 h). […]

Data on three compounds can be found in patent publication US20210317090A1, “AMINO ACID DEPLETION AGENTS AS ANTIPROLIFERATIVE AGENTS” (University of Central Florida Research Foundation, Inc., priority 2018, published 2021).

Structures are written as SMILES. Read-outs that look alike come from different tables or passages of the source.

T1 sequence (Q01650 whole entry): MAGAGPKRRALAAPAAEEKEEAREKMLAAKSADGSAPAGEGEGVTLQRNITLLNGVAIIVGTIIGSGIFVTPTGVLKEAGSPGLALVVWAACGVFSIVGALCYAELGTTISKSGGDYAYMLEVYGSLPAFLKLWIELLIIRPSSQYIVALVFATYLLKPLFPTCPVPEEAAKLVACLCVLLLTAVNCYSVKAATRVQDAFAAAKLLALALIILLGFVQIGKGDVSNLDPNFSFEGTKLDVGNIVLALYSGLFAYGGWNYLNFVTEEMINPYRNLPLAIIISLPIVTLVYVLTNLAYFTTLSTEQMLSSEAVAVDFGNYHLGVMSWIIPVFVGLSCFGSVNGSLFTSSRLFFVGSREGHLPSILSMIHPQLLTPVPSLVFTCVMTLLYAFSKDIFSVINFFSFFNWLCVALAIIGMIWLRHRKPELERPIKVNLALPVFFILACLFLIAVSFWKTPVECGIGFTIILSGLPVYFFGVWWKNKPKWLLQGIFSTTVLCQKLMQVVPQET
T1 sequence (P08195 102-630 partner): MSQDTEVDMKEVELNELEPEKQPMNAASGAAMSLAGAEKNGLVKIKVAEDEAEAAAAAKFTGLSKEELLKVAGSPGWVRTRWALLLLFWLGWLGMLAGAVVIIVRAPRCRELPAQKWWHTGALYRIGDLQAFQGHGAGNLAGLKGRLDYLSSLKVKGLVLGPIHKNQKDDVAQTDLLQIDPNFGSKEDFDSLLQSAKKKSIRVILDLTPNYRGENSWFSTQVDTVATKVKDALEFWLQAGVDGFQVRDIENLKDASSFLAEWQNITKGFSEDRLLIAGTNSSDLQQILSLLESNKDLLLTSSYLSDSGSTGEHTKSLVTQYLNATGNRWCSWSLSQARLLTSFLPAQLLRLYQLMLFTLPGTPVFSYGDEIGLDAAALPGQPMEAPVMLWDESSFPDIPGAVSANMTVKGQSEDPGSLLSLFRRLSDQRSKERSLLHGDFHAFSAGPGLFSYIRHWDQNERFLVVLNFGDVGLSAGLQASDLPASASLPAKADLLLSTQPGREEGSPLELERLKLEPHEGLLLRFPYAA

By IC50 is commonly meant the concentration needed to halve the response being measured. As a reminder, the EC50 is the concentration at which the effect is half-maximal. For the compound `CC(C)(C)CCN1CCN(C(CNCc2ccccc2)Cc2ccccc2)CC1Cc1ccccc1.Cl.Cl.Cl` (stereo not drawn) [Compound 9, Benzyl-{2-[3-benzyl-4-(3,3-dimethyl-butyl)-piperazin-1-yl]-3-phenyl-propyl}-amine trihydrochloride salt], the “toxicity of compound alone” value is listed as “nontoxic” in the test with CHO K1 cells [1] (CHO K1, highest concentration tested (5 μM)) and “nontoxic” in test [2] (L3.6pl, second highest concentration tested (1 μM), 72 h). The “toxicity (dose-response curve)” value in the test on CHO K1 cells [1] (CHO K1 cells, up to the highest dose tested (15 μM)) was “non-toxic”. Also, the IC50 in test [2] (Homo sapiens, L3.6pl cells, 72 h, read-out: 72 h IC50) stood at 11.7 ± 0.9 µM. The EC50 in the test on L3.6pl cells turned out to be 3.27 ± 0.17 µM; in the test on CHO K1 cells [3] (CHO K1 cells, 48 h (FIG. 5), read-out: Ant-44 potentiation EC50), 0.75 µM; in the test with CHO K1 cells [3] (CHO cells, 48 h, read-out: Ant44 potentiation assay EC50), 0.75 µM.

Turning to `NCCC[C@](N)(C(=O)O)C(F)F` [DFMO, α-difluoromethylornithine], the IC50 in the test with CHO K1 cells [4] is 4200 µM.

As to `Nc1cc(COc2c(Cl)cc(C[C@H](N)C(=O)O)cc2Cl)c2oc(-c3ccccc3)nc2c1` [JPH-203, reference compound], the “toxicity to L3.6pl cells” value in test [2] (over the concentration range and time interval of the uptake experiment) is reported as “not toxic”. On LAT-1 [5], the “3H-leucine efflux stimulated by unlabeled Leucine (100 μM)” value was “inhibited” and the “3H-leucine efflux, compound alone” value is on record as “modestly stimulated efflux”. In addition, on LAT-1 [6], the 3H-Leucine uptake entry is recorded as “dose dependent decrease in 3H-Leucine uptake”.
